# From ChEMBL document CHEMBL4602649, “Identification of 6'-β-fluoro-homoaristeromycin as a potent inhibitor of chikungunya virus replication” (Eur J Med Chem, 2020)
# Calls of active or inactive are those of the source. No cut-off for these calls is given here.
# Tests used:
# [1] = test system: SARS-CoV; assay: Antiviral activity against SARS-CoV Frankfurt1 infected in African green monkey Vero E6 cells pretreated with compound followed by viral infection and measured at 72 hrs post-infection by MTS assay; type: functional, organism-based; details: Severe acute respiratory syndrome-related coronavirus; Frankfurt 1; Vero C1008
# [2] = test system: Middle East respiratory syndrome-related coronavirus; assay: Antiviral activity against MERS-CoV EMC/2012 infected in African green monkey Vero cells pretreated with compound followed by viral infection and measured at 72 hrs post-infection by MTS assay; type: functional, organism-based
# [3] = target: Adenosylhomocysteinase (Homo sapiens, UniProt P23526); assay: Inhibition of human placental SAH hydrolase expressed in Escherichia coli JM109 using SAH as substrate preincubated for 10 mins followed by SAH addition and measured after 20 mins by DNTB reagent-based spectrophotometric method
# Adenosylhomocysteinase, sequence (P23526 whole entry): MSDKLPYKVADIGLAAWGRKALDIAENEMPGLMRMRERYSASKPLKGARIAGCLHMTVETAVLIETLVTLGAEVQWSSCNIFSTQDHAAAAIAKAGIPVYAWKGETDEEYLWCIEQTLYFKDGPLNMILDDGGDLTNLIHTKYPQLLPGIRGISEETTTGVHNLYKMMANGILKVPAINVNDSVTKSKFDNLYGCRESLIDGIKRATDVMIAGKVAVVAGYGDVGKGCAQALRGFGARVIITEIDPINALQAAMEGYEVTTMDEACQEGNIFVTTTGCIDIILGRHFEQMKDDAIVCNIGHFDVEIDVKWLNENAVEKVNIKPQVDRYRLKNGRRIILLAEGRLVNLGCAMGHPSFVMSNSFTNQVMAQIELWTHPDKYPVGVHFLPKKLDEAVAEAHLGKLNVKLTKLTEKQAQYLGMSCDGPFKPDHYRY
# [4] = test system: Chikungunya virus; assay: Antiviral activity against CHIKV LS3 infected in African green monkey Vero E6 cells assessed as reduction in virus-induced cytopathic effect pretreated with compound followed by viral infection and measured at 96 hrs post-infection by MTS assay; type: functional, organism-based; details: LS3, Vero C1008
# [5] = test system: Vero C1008; assay: Cytotoxicity against African green monkey Vero E6 cells assessed as reduction in cell viability measured after 96 hrs by MTS assay; type: cell-based; details: chlorocebus sabaeus, vero c1008, 96 h
# [6] = Selectivity index, ratio of CC50 for African green monkey Vero E6 cells to EC50 for antiviral activity against CHIKV-LS3 infected in African green monkey Vero E6 cells; type: toxicity, Vero C1008; details: read-out: Ratio CC50/EC50
# [7] = test system: Zika virus; assay: Antiviral activity against ZIKV SL0612 infected in African green monkey Vero CCL81 cells pretreated with compound followed by viral infection and measured at 96 hrs post-infection by MTS assay; type: functional, organism-based
Structure (SMILES),Activity [1],Activity [2],IC50 [3] [µM],EC50 [4] [µM],CC50 [5] [µM],selectivity ratio [6],Activity [7]
Nc1ncnc2c1ncn2[C@H]1[C@H](O)[C@H](O)[C@@H](CCO)[C@H]1F,inactive,inactive,0.36,0.12,> 250,> 2080,inactive
Nc1ncnc2c1ncn2[C@H]1[C@H](O)[C@H](O)[C@@H](CO)C1(F)F,Active,Active,,0.13,> 1.25,,Active
CNc1ncnc2c1ncn2[C@H]1[C@H](O)[C@H](O)[C@@H](CCO)[C@H]1F,inactive,inactive,0.37,> 100,> 100,,inactive
CNc1ncnc2c1ncn2[C@H]1[C@H](O)[C@H](O)[C@@H](CCO)C1(F)F,inactive,inactive,3.05,> 100,> 100,,inactive
Nc1ncnc2c1ncn2[C@H]1[C@H](O)[C@H](O)[C@@H](CO)[C@H]1F,Active,Active,,> 100,> 100,,Active
OCC[C@@H]1[C@@H](O)[C@@H](O)[C@H](n2cnc3c(O)ncnc32)[C@@H]1F,inactive,inactive,> 100,> 100,> 100,,inactive
Nc1ncnc2c1ncn2[C@H]1[C@H](O)[C@H](O)[C@@H](CCO)C1(F)F,inactive,inactive,2.03,> 100,> 25,,inactive
